pIC50: −log10 of the molar value. Several values for one entry are separate records, joined by “and”; a condition that tells them apart may be missing. Identical values can stand only once.
Tests used:
[1] = test system: TIG‐102 dermal fibroblasts; assay: cell survival (trypan blue exclusion, 5 days), TIG-102; assay type: cell-based, human; conditions: for pIC50: TIG102, cellular survival, 5 days; for Ratio of survived cells (Drugs treated/Untreated), Average / Ratio of survived cells (Drugs treated/Untreated), single passage points #: TIG-102
Procedure: (§1) Modified procedures of CTOS culture 16 were described elsewhere 10. […] The culture medium was serum‐free advanced DMEM/F‐12 (GIBCO, Waltham, MA) supplemented with FGF‐2 (10 ng/mL, ReproCell, Yokohama, Japan), penicillin ([…], Wako, Osaka, Japan), streptomycin (0.1 mg/mL,Wako), gentamicin (50 μg/mL, Wako), and fungizone (0.25 μg/mL, GIBCO). DLD‐1 and HCT116 CRC cell lines were purchased from JCRB Cell Bank (Osaka, Japan) and RIKEN BioResource Center (Ibaraki, Japan), respectively. In order to estimate pharmacological side effects against normal tissues, human diploid fibroblasts were purchased (JCRB Cell Bank) as model cells. The origins of the fibroblasts were as follows: OUMS‐36 (embryo), TIG‐3 (fetal lung), TIG‐111 (dermal fibroblasts [DFs] from individual), TIG‐119 (DFs from individual), and TIG‐102 (DFs from individual). Adult DFs were purchased from Kurabo (Osaka, Japan). CRC cell lines and fibroblasts were maintained under supplier‐recommended culture conditions. Since the culture conditions are different between fibroblasts and CTOSs, we need to be cautious about the interpretation of data (i.e., lateral comparison between them). […] Colorectal CTOSs display augmented survival through maintaining epithelial structure with E‐cadherin 16. On the other hand, the establishment of conventional cell lines (adherent culture) are much less efficient because constant cell division and autonomous survival are required for the procedure. When we choose CTOSs instead of cancer cell lines, we lose the equivalent condition (adherent culture) as a trade‐off.
(§2) Each drug's half‐maximal inhibitory concentration (IC50) was calculated based on live cell number ratios (drug treated/untreated × 100%) obtained from serial dilution of drug concentration. The length of drug exposure was 5 days. Each number of live cells was counted automatically by trypan blue exclusion (LUNA automated cell counter, Logos Biosystems, Anyang, South Korea). Cancer spheroids were dispersed with serial treatments (20 min each) of TrypLE™ and Accumax™. Thus, IC50 was determined based on cellular survival, but not on proliferation. We chose the survival index instead of the speed of growth because CTOSs in vitro show very slow proliferation (quiescence), which is one of the hallmarks of CSCs 2. The IC50 values of fibroblasts were accordingly determined based on cellular survival index during quiescence (by contact inhibition). […] To quantify the synergism of two distinct drugs, Combination Index (CI) was calculated 21. A CI value of about 1 (0.90–1.10) was defined as nearly additive and CI values more than (>1.10) and less than (<0.90) were defined as antagonism and synergism, respectively. IC50 and CI were determined using CompuSyn software (ComboSyn, Paramus, NK).

[2] = test system: TIG‐3 embryonic fibroblasts (fetal lung); assay: cell survival (trypan blue exclusion, 5 days), TIG-3; assay type: cell-based, human; conditions: for pIC50: TIG3, cellular survival, 5 days; for Ratio of survived cells (Drugs treated/Untreated), Average / Ratio of survived cells (Drugs treated/Untreated), single passage points #: TIG-3
Procedure: as §1, §2

[3] = test system: NRF2 target genes in human embryonic fibroblasts OUMS36 or TIG-3; assay: qRT-PCR of NRF2 and TP53 target genes in fibroblasts; assay type: cell-based; conditions: auranofin 2 μmol/L or piperlongumine 5 μmol/L for 24 h
Procedure: Total RNA was purified using RNAiso Plus (Takara, Osaka, Japan). Reverse transcription was performed using PrimeScript™ with gDNA Eraser (Takara). For quantifying the copy number of each mRNA, we used a StepOne™ Real‐Time PCR System (Applied Biosystems, Waltham, MA) and the Taqman® method. Data were calculated according to the modified delta‐cycle of threshold (ΔCT) method. Normalized Log2 expression was defined as follows: (Log2 expression of a gene of interest) = 30 (arbitrary constant) + (CT of 18S rRNA) − (CT of a gene of interest). We used Log2 parameter for statistical analysis because mRNA expression follows a log‐normal distribution, whereas ΔCT follows normal distribution. A gene‐specific fluorescent probe was designed using a web‐based program (https://qpcr.probefinder.com/organism.jsp). […] Gene‐specific Taqman® probes were purchased from Life Technologies, (Waltham, MA, for Cat#, see Table S1 SpreadSheet2). For PCR, Thunderbird® Probe qPCR mix (Toyobo, Osaka, Japan) was used and the PCR conditions consisted of 40 cycles of two steps (95°C for 15 sec and 60°C for 50 sec).
To investigate whether NRF2 compensation occurs in fibroblasts, we quantified gene induction of NRF2 target genes by auranofin (2 μmol/L for 24 h) or piperlongumine (5 μmol/L for 24 h). […] Basal phosphorylation of NRF2 was lower in fibroblasts, compared to CTOSs (Fig. S5B). The significance of expression changes due to the exposure were as follows: GCLM (Fig. S6, Aura: P = 0.001, up‐regulated, Pipe: P = 0.009, up‐regulated), TXNRD1 (Fig. S6, Aura: P = 0.001, up‐regulated, Pipe: P = 0.439), and G6PD (Fig. S6, Aura: P = 0.001, up‐regulated, Pipe: P = 0.130).
Human embryonic fibroblasts OUMS36 or TIG-3 was incubated with designated concentration of inhibitor for 24 hours. mRNA expression of each gene was quantified by real-time RT-PCR and expression level was indicated as relative Log2 expression. Each bar indicates mean value of Log2 expression (n=3 at different passage points). Error bar indicates standard deviation. P-values of difference are described in Results.

SMILES: COc1cc(/C=C/C(=O)N2CCC=CC2=O)cc(OC)c1OC [Pipe, Piperlongumine]
- pIC50 [1]: 5.10
- Ratio of survived cells (Drugs treated/Untreated), Average ([1]; Pipe 2.5 microM): 105.667%
- Ratio of survived cells (Drugs treated/Untreated), single passage points # ([1]; Pipe 2.5 microM): 83% and 86% and 148%
- Ratio of survived cells (Drugs treated/Untreated), Average ([1]; Pipe 5 microM): 86.3333%
- Ratio of survived cells (Drugs treated/Untreated), single passage points # ([1]; Pipe 5 microM): 54% and 100% and 105%
- Ratio of survived cells (Drugs treated/Untreated), Average ([1]; Pipe 10 microM): 27.6667%
- pIC50 [2]: 4.97
- Ratio of survived cells (Drugs treated/Untreated), Average ([2]; Pipe 2.5 microM): 111.833%
- Ratio of survived cells (Drugs treated/Untreated), single passage points # ([2]; Pipe 2.5 microM): 107% and 154% and 95% and 81% and 127%
- Ratio of survived cells (Drugs treated/Untreated), Average ([2]; Pipe 5 microM): 79.5%
- Ratio of survived cells (Drugs treated/Untreated), single passage points # ([2]; Pipe 5 microM): 82% and 60% and 112% and 58% and 92% and 73%
- Ratio of survived cells (Drugs treated/Untreated), Average ([2]; Pipe 10 microM): 64%
- GCLM mRNA expression change [3]: up‐regulated

SMILES: CC[PH](CC)(CC)[Au][S][C@@H]1O[C@H](COC(C)=O)[C@@H](OC(C)=O)[C@H](OC(C)=O)[C@H]1OC(C)=O [Aura, Auranofin]
- pIC50 [1]: 5.96
- Ratio of survived cells (Drugs treated/Untreated), Average ([1]; Aura 1 microM): 48.5%
- Ratio of survived cells (Drugs treated/Untreated), single passage points # ([1]; Aura 1 microM): 44% and 53%
- Ratio of survived cells (Drugs treated/Untreated), Average ([1]; Aura 2 microM): 21%
- Ratio of survived cells (Drugs treated/Untreated), Average ([1]; Aura 4 microM): 0%
- Ratio of survived cells (Drugs treated/Untreated), single passage points # ([1]; Aura 4 microM): 0%
- pIC50 [2]: 5.71
- Ratio of survived cells (Drugs treated/Untreated), Average ([2]; Aura 1 microM): 83.1429%
- Ratio of survived cells (Drugs treated/Untreated), Average ([2]; Aura 2 microM): 61.4286%
- Ratio of survived cells (Drugs treated/Untreated), Average ([2]; Aura 4 microM): 9.571%
- G6PD mRNA expression change [3]: up‐regulated
- GCLM mRNA expression change [3]: up‐regulated
- TXNRD1 mRNA expression change [3]: up‐regulated

Reference: paper PMC5055185, “Dual pharmacological inhibition of glutathione and thioredoxin systems synergizes to kill colorectal carcinoma stem cells” (Cancer Medicine, 2016)
